Data from paper PMC10913730, “Antimicrobial activity of a natural compound and analogs against multi-drug-resistant Gram-positive pathogens” (Microbiology Spectrum, 2024).
Values after ≈ are worked out from the molar mass of the structure shown. Where two headings read alike, the source gives them in different places.

Tests used:
[1] = pH and Ka of 10-g/L aqueous solutions (pH meter); format: physicochemical; conditions: 10-g/L solution in distilled, deionized water
MRSA isolates = assay: MIC/MBC, CLSI broth microdilution, MRSA isolates; format: cell-based, Staphylococcus aureus
[2] = system: Staphylococcus epidermidis isolates; assay: microbe, parasite or virus in culture; format: cell-based; conditions: 21 Staphylococcus epidermidis isolates
Enterococcus faecalis = assay: MIC/MBC against Enterococcus faecalis; format: cell-based
Streptococcus pyogenes = assay: MIC/MBC against Streptococcus pyogenes; format: cell-based; conditions: for MBC: Streptococcus pyogenes
Pseudomonas aeruginosa = assay: MIC against Pseudomonas aeruginosa; format: cell-based
[3] = system: MRSA isolate SAD05 biofilms; format: cell-based, Staphylococcus aureus
[4] = system: human dermal fibroblast (HDF) cells; assay: alamarBlue cell viability assay, HDF; conditions: HDFs, 24-hour incubation, non-linear regression
[5] = system: human bronchial epithelial (16HBE) cells; assay: alamarBlue cell viability assay, 16HBE; conditions: 24-hour incubation, non-linear regression
[6] = system: erythrocytes (sheep blood); assay: Hemolytic activity against sheep erythrocytes; conditions: higher than MIC90
[7] = Staphylococcus aureus, MRSA, pH 5.5, MRSA 0606, pH 5.5
[8] = Staphylococcus aureus, MRSA, pH 5.5, MRSA 0608, pH 5.5
[9] = Staphylococcus aureus, MRSA, pH 5.5, MRSA 0634, pH 5.5
[10] = Staphylococcus aureus, MRSA, pH 5.5, MRSA 0641, pH 5.5
[11] = Staphylococcus aureus, MRSA, pH 5.5, MRSA 0646, pH 5.5
[12] = Staphylococcus aureus, MRSA, pH 5.5, TCH 1516, pH 5.5
[13] = Staphylococcus aureus, MRSA, pH 6.5, MRSA 0606, pH 6.5
[14] = Staphylococcus aureus, MRSA, pH 6.5, MRSA 0608, pH 6.5
[15] = Staphylococcus aureus, MRSA, pH 6.5, MRSA 0634, pH 6.5
[16] = Staphylococcus aureus, MRSA, pH 6.5, MRSA 0641, pH 6.5
[17] = Staphylococcus aureus, MRSA, pH 6.5, MRSA 0646, pH 6.5
[18] = Staphylococcus aureus, MRSA, pH 6.5, TCH 1516, pH 6.5
[19] = ATCC49532, Enterococcus faecalis (ATCC 49532)
[20] = ATCC51575, Enterococcus faecalis (ATCC 51575)
[21] = Streptococcus pyogenes (NR1571)

What does the source list for `Oc1c(Br)cc(Br)cc1-c1cc(Br)cc(Br)c1O` [C58, MC21-A]?
acid dissociation constant (Ka) [1]: 1.26 × 10^−12; pH of solution ([1]; room temperature): 6.80; MBC (MRSA isolates; MRSA 0606, pH 7.4): 6 µg/mL (≈ 12 µM); MIC (MRSA isolates; MRSA 0606, pH 7.4): 2 µg/mL (≈ 3.99 µM); MBC (MRSA isolates; MRSA 0608, pH 7.4): 4 µg/mL (≈ 7.97 µM); MIC (MRSA isolates; MRSA 0608, pH 7.4): 2 µg/mL (≈ 3.99 µM); MBC (MRSA isolates; MRSA 0634, pH 7.4): 2 µg/mL (≈ 3.99 µM); MIC (MRSA isolates; MRSA 0634, pH 7.4): 2 µg/mL (≈ 3.99 µM); MBC (MRSA isolates; MRSA 0641, pH 7.4): 4 µg/mL (≈ 7.97 µM); MIC (MRSA isolates; MRSA 0641, pH 7.4): 2 µg/mL (≈ 3.99 µM); MBC (MRSA isolates; MRSA 0646, pH 7.4): 4 µg/mL (≈ 7.97 µM); MIC (MRSA isolates; MRSA 0646, pH 7.4): 2 µg/mL (≈ 3.99 µM); MIC90 (MRSA isolates; Staphylococcus aureus, MRSA): 2 µg/mL (≈ 3.99 µM); MBC (MRSA isolates; [7]): 0.5 µg/mL (≈ 0.996 µM); MIC (MRSA isolates; [7]): 0.5 µg/mL (≈ 0.996 µM); MBC (MRSA isolates; [8]): 0.5 µg/mL (≈ 0.996 µM); MIC (MRSA isolates; [8]): 0.5 µg/mL (≈ 0.996 µM); MBC (MRSA isolates; [9]): 0.5 µg/mL (≈ 0.996 µM); MIC (MRSA isolates; [9]): 0.5 µg/mL (≈ 0.996 µM); MBC (MRSA isolates; [10]): 0.5 µg/mL (≈ 0.996 µM); MIC (MRSA isolates; [10]): 0.5 µg/mL (≈ 0.996 µM); MBC (MRSA isolates; [11]): 1 µg/mL (≈ 1.99 µM); MIC (MRSA isolates; [11]): 0.5 µg/mL (≈ 0.996 µM); MBC (MRSA isolates; [12]): 1 µg/mL (≈ 1.99 µM); MIC (MRSA isolates; [12]): 1 µg/mL (≈ 1.99 µM); MBC (MRSA isolates; Staphylococcus aureus, MRSA, pH 5.5, read-out: Average MBC, average of six MRSA isolates, pH 5.5): 0.67 µg/mL (≈ 1.34 µM); MIC (MRSA isolates; Staphylococcus aureus, MRSA, pH 5.5, read-out: Average MIC, average of six MRSA isolates, pH 5.5): 0.58 µg/mL (≈ 1.16 µM); MBC (MRSA isolates; [13]): 2 µg/mL (≈ 3.99 µM); MIC (MRSA isolates; [13]): 1 µg/mL (≈ 1.99 µM); MBC (MRSA isolates; [14]): 2 µg/mL (≈ 3.99 µM); MIC (MRSA isolates; [14]): 2 µg/mL (≈ 3.99 µM); MBC (MRSA isolates; [15]): 2 µg/mL (≈ 3.99 µM); MIC (MRSA isolates; [15]): 1 µg/mL (≈ 1.99 µM); MBC (MRSA isolates; [16]): 2 µg/mL (≈ 3.99 µM); MIC (MRSA isolates; [16]): 1 µg/mL (≈ 1.99 µM); MBC (MRSA isolates; [17]): 2 µg/mL (≈ 3.99 µM); MIC (MRSA isolates; [17]): 1 µg/mL (≈ 1.99 µM); MBC (MRSA isolates; [18]): 2 µg/mL (≈ 3.99 µM); MIC (MRSA isolates; [18]): 1 µg/mL (≈ 1.99 µM); MBC (MRSA isolates; Staphylococcus aureus, MRSA, pH 6.5, read-out: Average MBC, average of six MRSA isolates, pH 6.5): 2 µg/mL (≈ 3.99 µM); MIC (MRSA isolates; Staphylococcus aureus, MRSA, pH 6.5, read-out: Average MIC, average of six MRSA isolates, pH 6.5): 1.2 µg/mL (≈ 2.39 µM); MBC (MRSA isolates; Staphylococcus aureus, MRSA, pH 7.4, read-out: Average MBC, average of six MRSA isolates, pH 7.4): 4 µg/mL (≈ 7.97 µM); MIC (MRSA isolates; Staphylococcus aureus, MRSA, pH 7.4, read-out: Average MIC, average of six MRSA isolates, pH 7.4): 2 µg/mL (≈ 3.99 µM); MBC (MRSA isolates; Staphylococcus aureus, MRSA, read-out: MBC90, 39 evaluated MRSA isolates, CLSI broth microdilution): 4 µg/mL (≈ 7.97 µM); MBC (MRSA isolates; TCH 1516, pH 7.4): 4 µg/mL (≈ 7.97 µM); MIC (MRSA isolates; TCH 1516, pH 7.4): 2 µg/mL (≈ 3.99 µM); change of MIC and MBC with the reduction in pH (MRSA isolates; six MRSA isolates, pH lowered to 5.5): decreased as much as fourfold; MBC range [2]: 4 to 12 µg/mL; MIC range [2]: 1 to 4 µg/mL; MBC ([2]; read-out: MBC90): 8 µg/mL (≈ 15.9 µM); MIC90 ([2]; read-out: MIC90): 2 µg/mL (≈ 3.99 µM); MBC (Enterococcus faecalis; [19]): 12 µg/mL (≈ 23.9 µM); MIC (Enterococcus faecalis; [19]): 6 µg/mL (≈ 12 µM); MBC (Enterococcus faecalis; [20]): 12 µg/mL (≈ 23.9 µM); MIC (Enterococcus faecalis; [20]): 6 µg/mL (≈ 12 µM); MIC (Streptococcus pyogenes; [21]): 4 µg/mL (≈ 7.97 µM); MIC (Streptococcus pyogenes; Streptococcus pyogenes (NR1575), read-out: MIC): 4 µg/mL (≈ 7.97 µM); MBC (Streptococcus pyogenes; [21]): 16 µg/mL (≈ 31.9 µM); MBC (Streptococcus pyogenes; Streptococcus pyogenes (NR1575)): 12 µg/mL (≈ 23.9 µM); MIC (Pseudomonas aeruginosa; Pseudomonas aeruginosa (PAM57-15)): > 32 µg/mL; MIC (Pseudomonas aeruginosa; Pseudomonas aeruginosa (PAO1)): > 32 µg/mL; concentration that completely eradicated biofilms ([3]; 72-hour biofilms of SAD05, MBEC assay): 8 µg/mL; biofilm biomass, crystal violet assay ([3]; SAD05 biofilms, compared with vancomycin): lower biomass; LD50 [4]: 71.3 µg/mL; LD50 [5]: 59.3 µg/mL; concentration where hemolytic activity begins relative to MIC90 [6]: 32 fold
